Measurements as given in ChEMBL document CHEMBL4725275, “Structural basis for the stabilization of amyloidogenic immunoglobulin light chains by hydantoins” (Bioorg Med Chem Lett, 2020).
In brackets after ≈: the same amount, converted by molar mass. Activity calls are given as the source filed them. No cut-off for these calls is given here.

Key:
[1] = biological target: Immunoglobulin lambda variable 6-57 (Homo sapiens) (UniProt P01721); test: Binding affinity to AL patient derived full length IGLV6-57 assessed as protection against proteinase K-mediated digestion by measuring fraction remaining at 100 uM measured after 2 hrs by analytical size-exclusion chromatography
Immunoglobulin lambda variable 6-57 (Homo sapiens), sequence (P01721 whole entry): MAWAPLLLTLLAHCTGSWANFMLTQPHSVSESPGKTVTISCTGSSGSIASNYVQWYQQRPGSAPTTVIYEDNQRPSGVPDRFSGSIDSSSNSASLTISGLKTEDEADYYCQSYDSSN

Homo sapiens = species on record: Homo sapiens; test: Kinetic stabilization of AL patient derived recombinant full length IGLV6-57 C214S mutant assessed as induction of dimer formation at 100 uM by sedimentation velocity analytical ultracentrifugation
[2] = Solubility of the compound; format: physicochemical

CC(C)C[C@@H]1NC(=O)N(CC(=O)Nc2ccc(C(F)(F)F)cc2)C1=O
Activity [1]: Active

CCN(CC)c1ccc2c(C)cc(=O)oc2c1
Activity (Homo sapiens): Active

CC(C)C[C@H]1NC(=O)N(CC(=O)Nc2ccc(C(F)(F)F)cc2)C1=O
Activity [1]: Active

CC1CCCCC12NC(=O)N(CC(=O)Nc1ccc(C(F)(F)F)cc1)C2=O (stereo not given)
Activity (Homo sapiens): Active | solubility [2]: 100 µM (≈ 38.3 µg/mL)
